Assay results from US20220289691A1, “5-AMINO-SUBSTITUTED PYRAZOLES AND TRIAZOLES AS PEST CONTROL AGENTS” (Bayer Aktiengesellschaft, priority 2019, published 2022).

Assays:
[1] = tested on: Spodoptera frugiperda; experiment: Spodoptera frugiperda spray test; format: in vivo; details: foliar, 168 h, 100 g/ha, maize leaf discs, after 7 days, read-out: efficacy (caterpillars killed)
Protocol: Spodoptera frugiperda—Spray Test Solvent: 78.0 parts by weight of acetone • • 1.5 parts by weight of dimethylformamide Emulsifier: alkylaryl polyglycol ether
(§1) To produce a suitable active compound formulation, 1 part by weight of active compound is dissolved using the stated parts by weight of solvent and made up with water containing an emulsifier concentration of 1000 ppm until the desired concentration is attained. To produce further test concentrations, the formulation is diluted with emulsifier-containing water.
Leaf discs of maize (Zea mays) are sprayed with an active compound formulation of the desired concentration and, after drying, populated with caterpillars of the fall armyworm (Spodoptera frugiperda).
After 7 days, the efficacy in % is determined. 100% means that all the caterpillars have been killed; 0% means that no caterpillar has been killed.

[2] = tested on: Diabrotica balteata; experiment: Diabrotica balteata spray test; format: in vivo; details: 168 h, beetle larvae on wheat, after 7 days, read-out: efficacy (wheat plant growth); for pest or weed control at 100 g/ha: 100 g/ha (=32 μg/cavity); for pest or weed control at 500 g/ha: 500 g/ha (=160 μg/cavity); for pest or weed control at 125 g/ha: 125 g/ha (=40 μg/cavity)
Protocol: Diabrotica balteata—Spray Test Solvent: 78 parts by weight of acetone • • 1.5 parts by weight of dimethylformamide Emulsifier: alkylaryl polyglycol ether
as §1
Pre-swollen wheat grains (Triticum aestivum) are incubated in a multiwell plate filled with agar and a little water for one day (5 seed grains per cavity). The germinated wheat grains are sprayed with an active compound formulation of the desired concentration. Subsequently, each cavity is infected with 10-20 beetle larvae of Diabrotica balteata.
After 7 days, the efficacy in % is determined. 100% means that all wheat plants have grown as in the untreated, uninfected control; 0% means that no wheat plant has grown.

Structure (SMILES) | pest or weed control at 100 g/ha [1] [%] | pest or weed control at 100 g/ha [2] [%] | pest or weed control at 500 g/ha [2] [%] | pest or weed control at 125 g/ha [2] [%]
COCCNc1nc(-c2ccc(NC(=O)N=C3SCC(=O)N3c3ccccc3C(C)C)cc2)nn1-c1ccc(OC(F)(F)C(F)(F)F)cc1 [Compound I-128] | 100 | – | – | –
CC(C)c1ccccc1NC(=S)NN=Cc1ccc(-c2nc(NC3CSC3)n(-c3ccc(OC(F)(F)C(F)(F)F)cc3)n2)cc1 [Compound I-100] | 100 | 100 | – | –
CC(C)c1ccccc1N1C(=O)CSC1=NC(=O)Nc1ccc(-c2nc(NC(=O)C(F)F)n(-c3ccc(OC(F)(F)F)cc3)n2)cc1 [Compound I-038] | 100 | 80 | 100 | –
CC(=O)Nc1nc(-c2ccc(NC(=O)N=C3SCC(=O)N3c3ccccc3C(C)C)cc2)nn1-c1ccc(OC(F)(F)F)cc1 [Compound I-034] | 100 | 100 | 100 | –
COc1ccc(C(C)C)c(N2C(=O)CSC2=NN=Cc2ccc(-c3nc(NCCO)n(-c4ccc(OC(F)(F)C(F)(F)F)cc4)n3)cc2)c1 [Compound I-139] | 100 | – | – | –
CCOCCNc1nc(-c2ccc(C=NN=C3SCC(=O)N3c3ccccc3C(C)C)cc2)nn1-c1ccc(OC(F)(F)F)cc1 [Compound I-059] | 100 | – | – | –
CON(C)c1nc(-c2ccc(NC(=O)N=C3SCC(=O)N3c3ccccc3C(C)C)cc2)nn1-c1ccc(OC(F)(F)F)cc1 [Compound I-046] | 100 | 100 | 100 | –
CNc1nc(-c2ccc(C=NNC(=S)Nc3cc(C)ccc3C(C)C)cc2)nn1-c1ccc(OC(F)(F)F)cc1 [Compound I-070] | 100 | 100 | – | –
CC(C)c1ccccc1NC(=S)NN=Cc1ccc(-c2nc(N)n(-c3ccc(OC(F)(F)F)cc3)n2)cc1 [Compound I-021] | 100 | – | 100 | 100
CC(C)c1ccccc1N1C(=O)CSC1=NN=Cc1ccc(-c2nc(NC3COC3)n(-c3ccc(OC(F)(F)F)cc3)n2)cc1 [Compound I-053] | 100 | – | – | –
CNc1nc(-c2ccc(C=NN=C3SCC(=O)N3c3ccccc3C(C)C)cc2C#N)nn1-c1ccc(OC(F)(F)F)cc1 [Compound I-124] | 100 | 100 | – | –
CNc1nc(-c2ccc(NC(=O)N=C3SCC(=O)N3c3ccccc3C(C)C)cc2)nn1-c1ccc(OC(F)(F)C(F)(F)F)cc1 [Compound I-027] | 100 | – | 100 | 100
CNc1nc(-c2ccc(C=NN=C3SCC(=O)N3c3ccccc3C(C)C)c(Cl)c2)nn1-c1ccc(OC(F)(F)F)cc1 [Compound I-115] | 100 | – | – | –
CC(C)c1ccccc1NC(=S)NN=Cc1ccc(-c2nc(NC3CCOC3)n(-c3ccc(OC(F)(F)F)cc3)n2)cc1 (centres unmarked) [Compound I-068] | 100 | 100 | 100 | –
COCCCNc1nc(-c2ccc(C=NN=C3SCC(=O)N3c3ccccc3C(C)C)cc2)nn1-c1ccc(OC(F)(F)F)cc1 [Compound I-077] | 100 | – | – | –
CC(=O)Nc1cc(-c2ccc(C=NN=C3SCC(=O)N3c3ccccc3C(C)C)cc2)nn1-c1ccc(OC(F)(F)F)cc1 [Compound I-039] | 100 | 80 | – | –
CC(C)c1ccccc1N1C(=O)CSC1=NN=Cc1ccc(-c2nc(NCCC#N)n(-c3ccc(OC(F)(F)F)cc3)n2)cc1 [Compound I-092] | 100 | – | – | –
CCOC(CNc1nc(-c2ccc(C=NNC(=S)Nc3ccccc3C(C)C)cc2)nn1-c1ccc(OC(F)(F)F)cc1)OCC [Compound I-074] | 100 | – | – | –
CNc1cc(-c2ccc(C=NN=C3SCC(=O)N3c3ccccc3C(C)C)cc2)nn1-c1ccc(OC(F)(F)F)cc1 [Compound I-106] | 100 | 100 | – | –
CNc1nc(-c2ccc(/C=N/NC(=S)Nc3ccccc3C(C)C)c(Cl)c2)nn1-c1ccc(OC(F)(F)F)cc1 [Compound I-114] | 100 | 100 | – | –
CNc1nc(-c2ccc(C=NN=C3SCC(=O)N3c3ccccc3C(C)C)cc2)nn1-c1ccc(OC(F)(F)F)cc1 [Compound I-024] | 100 | – | 100 | 100
CC(C)c1ccccc1N1C(=O)CSC1=NN=Cc1ccc(-c2nc(NCCS(C)(=O)=O)n(-c3ccc(OC(F)(F)F)cc3)n2)cc1 [Compound I-095] | 100 | 100 | – | –
COCCNc1nc(-c2ccc(NC(=O)N=C3SCC(=O)N3c3cc(OC)ccc3C(C)C)cc2)nn1-c1ccc(OC(F)(F)C(F)(F)F)cc1 [Compound I-131] | 100 | – | – | –
